Results taken from patent US11833147B2, “Procaspase 3 activation by combination therapy” (The Board of Trustees of the University of Illinois, priority 2012, dated 2023).

Key:
[1] = more active than irinotecan itself; cited from earlier work
[2] = in mammals; cited from earlier work
U-937 (lymphoma) cells = assay: U-937 (lymphoma) cell death, PAC-1 with second agent; type: cell-based; details: 0-15 μM PAC-1, 0 nM second agent, 8 hours, FIG. 4
Procedure: FIG. 2. Effects of PAC-1 with Etoposide on U-937 (lymphoma) cell death. Dashed lines represent the level of purely additive effects.
FIG. 3. Effects of PAC-1 with Velcade® (bortezomib) on U-937 (lymphoma) cell death. […] Cell death was measured after 6 hours in bortezomib.
FIG. 4. Effects of PAC-1 with staurosporine on U-937 (lymphoma) cell death. […] Cell death was measured after 8 hours in staurosporine.

Row | Structure (SMILES) | activity relative to irinotecan [1] | safety [2] | cell death with PAC-1 alone (U-937 (lymphoma) cells)
1 | CCc1c2c(nc3ccc(O)cc13)-c1cc3c(c(=O)n1C2)COC(=O)[C@]3(O)CC [SN-38] | 200 times | – | –
2 | C=CCc1cccc(/C=N/NC(=O)CN2CCN(Cc3ccccc3)CC2)c1O [PAC-1, 2-(4-benzylpiperazin-1-yl)-N-[(2-hydroxy-3-prop-2-enyl-phenyl)methylideneamino]acetamide] | – | safe | Little or no cell death
